In patent EP0428132A1, “Pradimicin derivatives” (Bristol-Myers Squibb Company, priority 1989, dated 1991) one finds solubility, PD₅₀ and MIC data, which are given here for one compound.

Values after ≈ are worked out from the molar mass of the structure shown. Values joined by “and” are separate entries in the source; they are usually repeats but may differ in a detail not shown here. Equal entries are not always repeated.

Data set [1] in a line: Water solubility, protocol I (PBS, HPLC). It is filed as physicochemical. Conditions: Method I: PBS without CaCl₂ and MgCl₂.6H₂O. The protocol: The supernatant (2 µL) was analyzed by HPLC using the conditions specified for each compound in the Experimental Section. […] When not soluble, an additional amount of PBS (x µL) was added, sonicated, and centrifuged. When visibly soluble, the solution (2 µL) was injected to HPLC and the peak area was used for the known concentration of the sample.

In data set [2] the test system is Candida albicans A9540. As to the kind of experiment: Intravenous Candida albicans infection mouse model, Table 2 part B. The conditions noted are these: at 1 and 3.5 hrs after infection and twice on the following day, 21 days after fungal challenge, method of Spearman-Karber, male ICR mice. It is filed as in vivo, mice. The protocol:
Several compounds were also evaluated in an intravenous Candida albicans […] infection mouse model. The test organism was suspended in saline approximately 10 times the median lethal dose of the fungus (10⁶ cells/mouse) were used to infect intravenously male ICR mice weighing 20 to 24 g. Groups of five mice at each dose level were given the test compounds intravenously or intramuscularly. The 50% protective dose (PD₅₀) was calculated from survival rates recorded 20 or 21 days after the fungal challenge. […]

The next data set concerns FA21436. In words: In vitro antifungal activity, serial agar dilution method (Table 1). It is filed as cell-based, Asoergukkys flavus. The conditions noted are these: Sabouraud dextrose agar (pH 7.0); 28°C for 40 hours; read-out: MIC, Asoergukkys flavus FA21436. The protocol: (§1) The inoculum size was adjusted to 10⁶ cells/ml, and a volume of approximately 0.003 ml of fungal suspension was applied to the surface of the antibiotic containing agar plates with a multiinoculator. After incubation, the lowest concentration of antibiotic causing virtually complete inhibition of fungal growth was determined as the minimum inhibitory concentration (MIC). Table 1. [table]
In general terms: In agar dilution the substance is mixed into plates at graded concentrations.

In data set [3] the test system is Candida albicans A9540. In words: Intravenous Candida albicans infection mouse model, Table 2 part A. The conditions noted are these: drug administered once just after infection, 20 days after fungal challenge, method of Litchfield and Wilcoxon, male ICR mice. It is filed as in vivo. The protocol:
Several compounds were also evaluated in an intravenous Candida albicans […] infection mouse model. The test organism was suspended in saline approximately 10 times the median lethal dose of the fungus (10⁶ cells/mouse) were used to infect intravenously male ICR mice weighing 20 to 24 g. Groups of five mice at each dose level were given the test compounds intravenously or intramuscularly. The 50% protective dose (PD₅₀) was calculated from survival rates recorded 20 or 21 days after the fungal challenge. Control animals died between 7 to 15 days.

For data set [4], the system named is Candida tropicalis A25809. In words: In vitro antifungal activity, serial agar dilution method (Table 1a). Conditions: YM agar (pH 7.0, Difco), 30°C for 2 days (yeast) or 4 days (filamentous fungi), read-out: MICs, Candida tropicalis A25809. Type of data set: cell-based. The protocol: (§2) The inoculum size was adjusted to 10⁶ cells/ml, and a volume of approximately 0.003 ml of fungal suspension was applied to the surface of the antibiotic containing agar plates with a multiinoculator. After incubation, the lowest concentration of antibiotic causing virtually complete inhibition of fungal growth was determined as the minimum inhibitory concentration (MIC).

The test system of data set [5] is Candida albicans A9540. The data set is described as above. Type of data set: cell-based. Conditions: A9540, YM agar (pH 7.0, Difco), 30°C for 2 days (yeast) or 4 days (filamentous fungi), read-out: MICs, Candida albicans A9540. As for the experimental part: as §2
Data set [6] deals with Candida tropicalis A25812. Described as above. It is filed as cell-based. The conditions noted are these: A25812, YM agar (pH 7.0, Difco), 30°C for 2 days (yeast) or 4 days (filamentous fungi), read-out: MICs, Candida tropicalis A25812. As for the experimental part:
as §2

Data set [7] relates to Cryptococcus neoformans A15053. The description is as above. It is filed as cell-based. Conditions: A15053, YM agar (pH 7.0, Difco), 30°C for 2 days (yeast) or 4 days (filamentous fungi), read-out: MICs, Cryptococcus neoformans A15053. As for the experimental part: as §2
Data set [8] has as its system Microsporum canis WW10218. Described as above. Type of data set: cell-based. The conditions noted are these: WW10218, YM agar (pH 7.0, Difco), 30°C for 2 days (yeast) or 4 days (filamentous fungi), read-out: MICs, Microsporum canis WW10218. The protocol: as §2
Data set [9] has as its system Saccharomyces cerevisiae A25803. The description is as above. It is filed as cell-based. Conditions: YM agar (pH 7.0, Difco), 30°C for 2 days (yeast) or 4 days (filamentous fungi), read-out: MICs, Saccharomyces cerevisiae A25803. The protocol: as §2
Data set [10] has as its system Candida paratropicalis A25825. The data set is described as above. Type of data set: cell-based. Conditions: YM agar (pH 7.0, Difco); 30°C for 2 days (yeast) or 4 days (filamentous fungi); read-out: MICs, Candida paratropicalis A25825. The protocol:
as §2

The next data set relates to Candida albicans A25578. The description is as above. Type of data set: cell-based. Conditions: A25578, YM agar (pH 7.0, Difco), 30°C for 2 days (yeast) or 4 days (filamentous fungi), read-out: MICs, Candida albicans A25578. As for the experimental part:
as §2

In data set [11] the test system is Microsporum gypseum WW1107. Described as above. It is filed as cell-based. The conditions noted are these: Nannizzia gypsea, YM agar (pH 7.0, Difco), 30°C for 2 days (yeast) or 4 days (filamentous fungi), read-out: MICs, Microsporum gypseum WW1107. As for the experimental part:
as §2

The test system of data set [12] is Trichophyton rubrum A26761. The description is as above. It is filed as cell-based. Conditions: A26761, YM agar (pH 7.0, Difco), 30°C for 2 days (yeast) or 4 days (filamentous fungi), read-out: MICs, Trichophyton rubrum A26761. As for the experimental part:
as §2

For data set [13], the system named is Trichophyton mentagrophytes A26771. The description is as above. The conditions noted are these: A26771, YM agar (pH 7.0, Difco), 30°C for 2 days (yeast) or 4 days (filamentous fungi), read-out: MICs, Trichophyton mentagrophytes A26771. It is filed as cell-based. As for the experimental part: as §2
Data set [14] concerns Candida pseudotropicalis A25802. The description is as above. Conditions: Kluyveromyces marxianus, YM agar (pH 7.0, Difco), 30°C for 2 days (yeast) or 4 days (filamentous fungi), read-out: MICs, Candida pseudotropicalis A25802. Type of data set: cell-based. The protocol:
as §2

Data set [15] relates to Aspergillus fumigatus IAM2530. In words: In vitro antifungal activity, serial agar dilution method (Table 1). Type of data set: cell-based. The conditions noted are these: Aspergillus fumigatus, IAM2530; Sabouraud dextrose agar (pH 7.0); 28°C for 40 hours. As for the experimental part: as §1
Data set [16] has as its system Petriellidium boydii IFO8078. The description is as above. Type of data set: cell-based. Conditions: Scedosporium boydii, IFO8078; Sabouraud dextrose agar (pH 7.0); 28°C for 40 hours. The protocol:
as §1

In data set [17] the test system is Blastomyces dermatidis D40. Described as above. Type of data set: cell-based. The conditions noted are these: Blastomyces, D40; Sabouraud dextrose agar (pH 7.0); 28°C for 40 hours; read-out: MIC, Blastomyces dermatidis D40. The protocol: as §1

Description for physchem: The sample (3 ∼ 3.5 mg) was suspended in 1 ml of PBS(-) or PBS(+), sonicated at 30°C for 10 minutes, and allowed to stand at room temperature for 2 hours. The resulting solution or suspension was centrifuged at 12,000 rpm for 10 minutes. The supernatant (pH 6.7 ∼ 7.2) was diluted (5 x or 50 x) with 0.01N NaOH (pH ca. 11.5) and its UV absorption at 500 nm was measured. The solubility was assessed by the absorption coefficient value with reference to the standard. […] The zwitterionic form sample was used for the solubility test as it is. The hydrochloride salt sample (3 mg) was dissolved in 3 ml of distilled water and neutralized with 0.01N NaOH, and then the solution was lyophilized to give a test sample.
Dulbecco's phosphate buffered saline (PBS) solution was used. Preparation of PBS(-) solution: One PBS(-) tablet (Flow Laboratories, Cat. No. 28-103-05) was dissolved in 100 ml distilled water, and the solution was autoclaved for 10 minutes at 115°C. This solution contains 0.2 g/L of KCl, 0.2 g/L of KH₂PO₄, 8 g/L of NaCl, and 1.15 g/L of Na₂HPO₄. Preparation of PBS(+) solution: One PBS(-) tablet was dissolved in 80 ml distilled water; 10 mg of CaCl₂ was dissolved in 10 ml distilled water; 10 mg of MgCl₂, 6H₂O was dissolved in 10 ml distilled water. These solutions were separately autoclaved, as described above, and mixed when cooled.

For `CN[C@@H]1[C@H](O[C@@H]2OC[C@@H](O)[C@H](O)[C@H]2O)[C@@H](O)[C@H](O[C@H]2c3cc(C)c(C(=O)N[C@H](C)C(=O)O)c(O)c3-c3c(cc4c(c3O)C(=O)c3cc(OC)cc(O)c3C4=O)[C@@H]2O)O[C@@H]1C` [Pradimicin A, reference compound], the solubility in data set [1] amounted to 17 µg/mL (≈ 20.2 µM). Besides, the PD₅₀ is 8.2 mg/kg in the data set with Candida albicans A9540 [2] (Part B: route IM); 30 mg/kg with Candida albicans A9540 [2] (Part B: route IV); 11 mg/kg and 7.9 mg/kg in the data set with Candida albicans A9540 [3]. Moreover, the MIC with FA21436 is 6.3 µg/mL (≈ 7.49 µM); in [4], 1.6 µg/mL (≈ 1.9 µM); in the data set on Candida albicans A9540 [5], above 50 µg/mL; in [6] it was above 50 µg/mL; in [7], 0.4 µg/mL (≈ 0.476 µM); in data set [8], 1.6 µg/mL (≈ 1.9 µM). The MIC in [9] is 0.8 µg/mL (≈ 0.951 µM); in data set [10], above 50 µg/mL; in the data set on Candida albicans A25578, 3.2 µg/mL (≈ 3.81 µM); in data set [11], 12.5 µg/mL (≈ 14.9 µM); in data set [12] it was 6.3 µg/mL (≈ 7.49 µM); in data set [13], 6.3 µg/mL (≈ 7.49 µM). Further, the MIC in data set [14] turned out to be 3.2 µg/mL (≈ 3.81 µM); in data set [15], 3.1 µg/mL (≈ 3.69 µM); in [16], 12.5 µg/mL (≈ 14.9 µM); in data set [17], 3.1 µg/mL (≈ 3.69 µM). The solubility at 2 h in the data set “physchem” (Method II (+): PBS(+)) came to 81 µg/mL (≈ 96.3 µM); in “physchem” (Method II (-): PBS(-)), 17 µg/mL (≈ 20.2 µM).

For orientation: solubility means the dissolved amount per volume that the medium holds. High values mean a readily soluble substance, low ones a poorly soluble substance.
